Reference: US6500858B2, “Taxoid anti-tumor agents and pharmaceutical compositions thereof” (The Research Foundation of the state University of New York, priority 1994, dated 2002)
Several values for one entry are separate records, joined by “and”; a condition that tells them apart may be missing. Equal values may be shown once.

What was measured:
A2780 = experiment: growth inhibition by cell counts, 72 h; type: cell-based, human; conditions: 72 h; read-out: A2780 IC50
Procedure: (§1) Cells were plated in 6-well flat bottom plates (Falcon, Lincoln Park, N.J.) at a concentration of 10^5 cells ml in complete medium. After 24 h, the medium was replaced with media containing the test substances. Control cells were treated with vehicle alone. Cells were then washed twice and cultures maintained up to 72 h in complete medium (without removing the test substances). At this time point quadruplicate counts of triplicate cultures were performed. To calculate the growth inhibition effect, three independent experiments were performed for each test substance/cell line. The IC50 values were then calculated by fitting the concentration-effect curve data obtained in the three experiments with the sigmoid-Emax model using nonlinear regression, weighted by the reciprocal of the square of the predicted effect according to the method of Motulsky, H. J. and Ransnas, L. A., FASEB J. 1:365-74 (1987).

DU-145 = experiment: growth inhibition by cell counts, 72 h; type: cell-based, human; conditions: 72 h; read-out: DU-145 IC50
Procedure: as §1

MCF-7 ADRr = experiment: growth inhibition by cell counts, 72 h; type: cell-based, human; conditions: 72 h; read-out: MCF-7 ADRr IC50
Procedure: as §1

MCF-7 wt = experiment: growth inhibition by cell counts, 72 h; type: cell-based, human; conditions: 72 h; read-out: MCF-7 wt IC50
Procedure: as §1

NCI-H23 = experiment: growth inhibition by cell counts, 72 h; type: cell-based, human; conditions: 72 h; read-out: NCI-H23 IC50
Procedure: as §1

PC-3 = experiment: growth inhibition by cell counts, 72 h; type: cell-based, human; conditions: 72 h
Procedure: as §1

WiDr = experiment: growth inhibition by cell counts, 72 h; type: cell-based, human; conditions: read-out: WiDr IC50
Procedure: as §1

B16 melanoma = experiment: intravenous administration to mice bearing B16 melanoma; type: in vivo, B6D2F1 female mice; design: key to Responses (activity rating): A = active; HA = highly active
Procedure: (§2) The efficacy of the test compounds on solid tumors in vivo was determined experimentally according to the following general experimental protocol:
(§3) The mice subjected to the experiment were subcutaneously grafted bilaterally with 30 to 60 mg of a tumor fragment on day zero. Mice bearing tumors were mixed before being subjected to the various treatments and controls. In the case of treatment of advanced tumors, tumors were allowed to develop to the desired size, and mice having insufficiently developed tumors were eliminated. The selected mice were distributed at random to undergo the treatments and controls. Mice not bearing tumors may also be subjected to the same treatments as the tumor-bearing mice in order to be able to dissociate the toxic effect from the specific effect on the tumor. Chemotherapy generally began from 3 to 22 days after grafting, depending on the type of tumor, and the mice were observed every day. The different mice groups were weighed 3 or 4 times a week until the maximum weight loss was attained (nadir), and the groups were then weighed at least once a week until the end of the trial.
(§4) The tumors were measured 2 or 3 times a week until the tumor reached approximately 2 grams, or until the animal died, if this occurred before the tumor reached 2 grams. The mice were autopsied when sacrificed.
(§5) The antitumor activity was determined in accordance with different parameters recorded such as dose (mg/kg), mode of administration, time of administration, cytotoxicity, toxicity and log10 cell kill.
SB-T-1213, SB-T-121303, SB-T-121304 and SB-T-1250 were evaluated in B6D2F1 female mice bearing B16 melanoma. The general experimental protocol was as described above. The compounds evaluated were administered intravenously (iv) on an intermittent schedule on days 3, 5, and 7 post tumor implantation. With the exception of SB-T-1250, solutions of the compounds for administration were prepared in 5% ethanol, 5% polysorbate 80, and 90% glucose 5% water.

[1] = test system: docetaxel-resistant melanoma, B16/TXT; experiment: intravenous administration to B16/TXT melanoma-bearing mice; type: in vivo, B6D2F1 female mice; design: key to Responses (activity rating): A = active; HA = highly active
Procedure: as §2, §3, §4, §5
SB-T-1213, SB-T-121303, SB-T-121304 and SB-T-1250 were evaluated in B6D2F1 female mice bearing the docetaxel-resistant melanoma, B16/TXT. The general experimental protocol was as described above. The compounds evaluated were administered intravenously on an intermittent schedule on days 3, 5, and 7 post tumor implantation.

A121 (ovarian carcinoma) = experiment: tumor cell growth inhibition (SRB, 72 h drug exposure); type: cell-based, human; conditions: 72 h drug exposure
Procedure: (§6) Lower numbers indicate higher potency. […] The data represent the mean values of at least three separate experiments. Lower numbers indicate greater activity.
(§7) Assessment of cell growth inhibition was determined according to the methods of Skehan et al., J. Nat. Cancer Inst. […] Briefly, cells were plated between 400 and 1200 cells/well in 96 well plates and incubated at 37° C. for 15-18 h prior to drug addition to allow attachment of cells. […] After a 72 h incubation, […] of ice-cold 50% TCA was added to each well and incubated for 1 h at 4° C. Plates were then washed 5 times with tap water to remove TCA, low-molecular-weight metabolites and serum proteins. Sulforhodamine B (SRB) (0.4%, […]) was added to each well. Following a 5 min incubation at room temperature, plates were rinsed 5 times with 0.1% acetic acid and air dried. […] Optical density was measured at 570 nm.

[2] = test system: A549 (non-small cell lung carcinoma); experiment: as above; type: cell-based, human; conditions: 72 h drug exposure; read-out: A549 (NSCLC) IC50
Procedure: as §6, §7

HT-29 (colon carcinoma) = experiment: as above; type: cell-based, human; conditions: 72 h drug exposure
Procedure: as §6, §7

MCF7 (mammary carcinoma) = experiment: as above; type: cell-based, human; conditions: 72 h drug exposure, Table 1; read-out: MCF7 (breast) IC50
Procedure: as §6, §7

[3] = test system: MCF7-R (mammary carcinoma cells 180-fold resistant to adriamycin); experiment: as above; type: cell-based, human
Procedure: as §6, §7

[4] = test system: human colon carcinoma cells HCT-116; conditions: cited from earlier work
[5] = test system: multi-drug resistant phenotype human colon carcinoma cells HCT-116/VM; conditions: cited from earlier work

## 3′-dephenyl-3′-(2,2-dimethyl-1-cyclopropyl)-10-acetyldocetaxel [SB-T-1250]
A2780
  IC50: 3.03 nM
DU-145
  IC50: 0.6 nM
MCF-7 ADRr
  IC50: 48 nM
MCF-7 wt
  IC50: 2.3 nM
NCI-H23
  IC50: 1.6 nM
PC-3
  IC50: 0.7 nM
WiDr
  IC50: 0.5 nM
B16 melanoma; 4.5 mg/kg/adm.
  Responses (activity rating): A
B16 melanoma; 4.5 mg/kg/adm., days 3, 5, 7
  T/C: 23%
  log10 cell kill: 1.2
B16 melanoma; 4.5 mg/kg/adm., days 3, 5, 7, 4.5 mg/kg
  % body weight loss at nadir: 12.5% and 12.5 (3) %
B16 melanoma; 7.3 mg/kg/adm., days 3, 5, 7
  drug related deaths (DD): ⅕
B16 melanoma; 11.8 mg/kg/adm., days 3, 5, 7
  drug related deaths (DD): ⅗
B16 melanoma; 19 mg/kg/adm., days 3, 5, 7
  drug related deaths (DD): 100%
B16 melanoma; days 3, 5, 7
  highest nontoxic dose: 4.5 mg/kg/adm.
[1]; 2.8 mg/kg/adm., days 3, 5, 7
  T/C: 152%
[1]; 4.5 mg/kg/adm., days 3, 5, 7
  T/C: 108%
[1]; 7.3 mg/kg/adm.
  Responses (activity rating): A
[1]; 7.3 mg/kg/adm., days 3, 5, 7
  T/C: 41%
  log10 cell kill: 1.1
[1]; 7.3 mg/kg/adm., days 3, 5, 7, 7.3 mg/kg
  % body weight loss at nadir: 16.7% and 16.7 (4) %
[1]; days 3, 5, 7
  highest nontoxic dose: 7.3 mg/kg/adm.

## CC(=O)OC1C(=O)C2(C)C(O)CC3OCC3(OC(C)=O)C2C(OC(=O)c2ccccc2)C2(O)CC(OC(=O)C(O)C(C=C(C)C)NC(=O)c3ccccc3)C(C)=C1C2(C)C (centres unmarked) [RAH-1, 3′-dephenyl-3′-isobutenylpaclitaxel]
A121 (ovarian carcinoma)
  IC50: 1.4 nM
[2]
  IC50: 0.45 nM
HT-29 (colon carcinoma)
  IC50: 0.96 nM
MCF7 (mammary carcinoma)
  IC50: 0.54 nM
[3]; 72 h drug exposure, Table 1
  IC50: 113 nM
[3]; one order of magnitude weaker than Taxoid Ia
  activity against MCF7-R in words: only marginal activity
[4]
  times better activity than docetaxel: 7 times
  times better activity than paclitaxel: 4 times
[5]
  times better activity than docetaxel: 9 times
  times better activity than paclitaxel: about 20 times
